Source: patent US8580940B2, “Photoporphyrinogen oxidase having activity of imparting resistance against acifluorfen and gene thereof” (Nippon Soda Co., Ltd., priority 2005, dated 2013)

Key:
Amaranthus lividus = test: Herbicidal activity, foliage treatment; assay type: in vivo; details: foliage spray, two weeks after the treatment, index 0-10
Procedure: Seeds of Amaranthus lividus were sowed on the surface of soil filled in a pot (200 cm^2) followed by covering with a little soil and then grown to 5 to 10 cm of plant length in a greenhouse. Each of water-diluted test chemical solutions was sprayed to foliage part of Amaranthus lividus with a small spray in an amount corresponding to the spray amount of 1000 litter/ha to achieve predetermined amount of agent. Cultivation was carried out in a greenhouse. Then herbicidal effect on Amaranthus lividus was examined two weeks after the treatment according to an examination criterion below.
Values 1, 3, 5, 7, and 9 indicate the intermediate value of […], 4 and 6, 6 and 8, and 8 and 10 respectively.

[1] = system: ATΔslr1790 strain (AT strain in which slr1790 gene was disrupted); test: Test for inhibitory potency of protoporphyrinogen oxidase inhibitor, growth (turbidity) of ATΔslr1790 strain; assay type: cell-based, Synechocystis PCC6803; details: turbidity 6 days after start, 30° C., 1000 lux, BG11 liquid medium, pI50 = -log(concentration to inhibit 50% activity (M)); for IC50: Synechocystis, 144 h
Procedure: (§1) The AT strain obtained in Example 1 and ATΔslr1790 strain, in which slr1790 gene was disrupted by the method described in Example 4, were used. Aforedescribed BG11 liquid medium was employed. With a view to preventing reverse mutation or loss of the gene, either chloramphenicol or kanamycin was added to the medium at a final concentration of 25 μM for the AT strain and ATΔslr1790 strain, respectively, because a chloramphenicol resistance gene is introduced with protoporphyrinogen oxidase into AT strain and a kanamycin resistance gene is introduced into ATΔslr1790 strain when disrupting the gene. AT strain and ATΔslr1790 strain were precultured with shaking in BG11 liquid medium, collected during the growth phase, and suspended in fresh BG11 liquid medium supplemented with an antibiotic so that A730 became 0.1, which was used for investigation.
(§2) An active pharmaceutical ingredient of a test chemical was dissolved in DMSO and added to wells so that final concentration of agent became from 1.0×10^−4 M to 1.0×10^−9.5 M for each well (the final concentration of DMSO is 0.5%). The test includes shaking culture using a 96-well plate in a scale of 100 μl in each well at 30° C. of incubation temperature under 1000 lux of light intensity. Turbidity was measured 6 days after the start of the test and compared with solvent sample to calculate pI50 value. pI50 value=−log(concentration to inhibit 50% activity(M)) (Activity of Herbicidal Treatment)

[2] = system: AT strain (transgenic Synechocystis strain expressing Arabidopsis-derived protoporphyrinogen oxidase); test: microbe, parasite or virus in culture; assay type: cell-based, Synechocystis PCC6803; details: for IC50: Synechocystis, 144 h, read-out: pI50 Value AT strain
Procedure: as §1, §2

[3] = system: transformed Arabidopsis slr lineage (slr1790-introduced); test: Acifluorfen resistance test, degree of necrosis on leaves, slr1790-introduced transformants; assay type: in vivo; details: acifluorfen 10 μM, 5 μl dropped onto leaves, 7 days after treatment, by eye on a 0 to 5 scale (5 complete death, 0 no effect)
Procedure: (§3) For transformants in which gene introduction was confirmed, acifluorfen resistance effect was tested. Acifluorfen was prepared as emulsion to contain 4% of effective component by mixing and solubilizing dimethylformamide and polyoxyethylene sorbitan surfactant. This was diluted with water to make the final concentration of acifluorfen 10 μM, 5 μl of which was dropped using a micropippet onto leaves of Arabidopsis wild type and transformed Arabidopsis slr lineage, in which gene introduction was confirmed, both grown to 1 to 2 cm in height in a growth chamber.
(§4) Study was continued until 7 days after the treatment with the chemicals and degree of necrosis was evaluated by eye (on a 0 to 5 scale, 0 means no effect).
(§5) Evaluation was done by eye on a 0 to 5 scale, with 5 meaning complete death and 0 meaning no effect.

Arabidopsis wild type = test: Acifluorfen resistance test, degree of necrosis on leaves, wild type; assay type: in vivo; details: acifluorfen 10 μM, 5 μl dropped onto leaves, 7 days after treatment, by eye on a 0 to 5 scale (5 complete death, 0 no effect)
Procedure: as §3, §4, §5

| Structure (SMILES) | Herbicidal activity (foliage treatment) (herbicide index for Amaranthus lividus, 16 g ai/ha) (Amaranthus lividus) | IC50 [1] | IC50 [2] | degree of necrosis, slr 52 ([3]; transformant slr 52) | degree of necrosis, slr 146 ([3]; transformant slr 146) | degree of necrosis, Arabidopsis Wild Type (Arabidopsis wild type) | pI50 Value ATΔslr1790 strain [1] | pI50 Value AT strain ([2]; turbidity 6 days after start, 30° C., 1000 lux, BG11 liquid medium, pI50 = -log(concentration to inhibit 50% activity (M))) |
| --- | --- | --- | --- | --- | --- | --- | --- | --- |
| CCOC(=O)COc1cc(-c2nn(C)c(OC(F)F)c2Cl)c(F)cc1Cl [pyraflufenethyl, pyraflufen-ethyl] | 10 (100%) | 2.51e-07 M | > 100 µM |  |  |  |  |  |
| c1cc[n+]2c(c1)-c1cccc[n+]1CC2 [diquat] |  | 1e-05 M | 6.31 µM |  |  |  |  |  |
| O=C(O)c1cc(Oc2ccc(C(F)(F)F)cc2Cl)ccc1[N+](=O)[O-] [acifluorfen] | 7 | 3.16e-05 M | > 100 µM | 1 | 1 | 4 |  |  |
| C#CCN1C(=O)COc2cc(F)c(N3C(=O)C4=C(CCCC4)C3=O)cc21 [flumioxazine] | 10 (100%) |  |  |  |  |  | 6.7 | 4> |
